In patent US20050148570A1, “Novel substituted alkane compounds and uses thereof” (priority 2001, published 2005):
Values after ≈ are worked out from the molar mass of the structure shown.

Columns and labels:
S. aureus = assay: MIC, broth dilution method; format: cell-based; settings: for MIC: Staphylococcus aureus, read-out: Antibacterial Activity against S. aureus MIC
Procedure: (§1) Antibacterial activity can be determined by several standard methods well known by those skilled in the art, including disc diffusions methods, broth dilution minimal inhibitory concentration (MIC) methods, etc., including the detailed method outlined below. Cultures of bacteria are initially brought up from the freezer by streaking a loopful onto agar plates under the appropriate conditions. For instance stocks are streaked onto chocolate agar and then incubated for 18 hours at 35-37° C. in a 5% CO2 incubator. Five to 10 colonies are picked from the chocolate agar plate for subculture to Brain-Heart Infusion (BHI) broth or Mueller Hinton broth or BHI containing 4% serum and incubated under the appropriate conditions. The ability of the test compound to act as an antimicrobial is determined by the ability to inhibit bacterial, algae, or fungal growth in vitro. The optical density of the culture of organisms in the presence of an active compound is compared to the optical density of the same organism untreated. The activity of the compounds is described as either negative or the lowest concentration inhibiting growth.

C. diphtheriae = assay: MIC, broth dilution method; format: cell-based; settings: Corynebacterium diphtheriae, read-out: MIC Anti-Bacterial Activity
Procedure: as §1

E. faecalis = assay: MIC, broth dilution method; format: cell-based; settings: Enterococcus faecalis, read-out: MIC Anti-Bacterial Activity
Procedure: as §1

H. influenzae = assay: MIC, broth dilution method; format: cell-based; settings: Haemophilus influenzae, read-out: MIC Anti-Bacterial Activity
Procedure: as §1

M. catarrhalis = assay: MIC, broth dilution method; format: cell-based; settings: Moraxella catarrhalis, read-out: MIC Anti-Bacterial Activity
Procedure: as §1

M. smegimatis = assay: MIC, broth dilution method; format: cell-based; settings: read-out: MIC Anti-Bacterial Activity
Procedure: as §1

S. epidermidis = assay: MIC, broth dilution method; format: cell-based; settings: Staphylococcus epidermidis, read-out: MIC Anti-Bacterial Activity
Procedure: as §1

S. pneumoniae = assay: MIC, broth dilution method; format: cell-based; settings: Streptococcus pneumoniae, read-out: MIC Anti-Bacterial Activity
Procedure: as §1

S. pyogenes = assay: MIC, broth dilution method; format: cell-based; settings: Streptococcus pyogenes, read-out: MIC Anti-Bacterial Activity
Procedure: as §1

| Molecule | MIC (S. aureus) [µg/mL] | melting point [°C] | other results |
| --- | --- | --- | --- |
| C[C@H]1[C@H](CC(C)(C)C)CC1(c1ccc(O)cc1)c1ccc(O)cc1 (relative stereo) [Example 13, Trans-1,1-di(4-hydroxyphenyl)-3-(2,2-dimethylpropyl)-2-methylcyclobutane] | 3.1 (≈ 9.55 µM) | – | – |
| Cc1cc(C2(c3cc(C)c(O)c(Cl)c3)C[C@@H](CC(C)(C)C)[C@@H]2C)ccc1O (relative stereo) [Example 28, Trans-1-(4-hydroxy-3-methylphenyl)-1-(5-chloro-4-hydroxy-3-methylphenyl)-3-(2,2-dimethylpropyl)-2-methylcyclobutane] | 6.2 (≈ 16 µM) | 138 to 140 | – |
| CCCC1CC(c2ccc(O)cc2)(c2ccc(O)cc2)C1 [Example 3, 1,1-Bis(4-hydroxyphenyl)-3-n-propyl-cyclobutane] | 8 (≈ 28.3 µM) | – | MIC (C. diphtheriae): 6 µg/mL (≈ 21.2 µM); MIC (E. faecalis): 13 µg/mL (≈ 46 µM); MIC (H. influenzae): 13 µg/mL (≈ 46 µM); MIC (M. catarrhalis): 3 µg/mL (≈ 10.6 µM); MIC (M. smegimatis): 6 µg/mL (≈ 21.2 µM); MIC (S. epidermidis): 6 µg/mL (≈ 21.2 µM); MIC (S. pneumoniae): 6 µg/mL (≈ 21.2 µM); MIC (S. pyogenes): 13 µg/mL (≈ 46 µM) |
| CCCC1CC(c2ccc(O)cc2)(c2ccc(O)c(Cl)c2)C1 (stereo not drawn) [Example 4, 1-(4-Hydroxyphenyl)-1-(4-hydroxy-3-chloro-phenyl)-3-n-propyl-cyclobutane] | 2 (≈ 6.31 µM) | – | MIC (C. diphtheriae): 2 µg/mL (≈ 6.31 µM); MIC (E. faecalis): 3 µg/mL (≈ 9.47 µM); MIC (H. influenzae): 6 µg/mL (≈ 18.9 µM); MIC (M. catarrhalis): 1 µg/mL (≈ 3.16 µM); MIC (M. smegimatis): 2 µg/mL (≈ 6.31 µM); MIC (S. epidermidis): 2 µg/mL (≈ 6.31 µM); MIC (S. pneumoniae): 3 µg/mL (≈ 9.47 µM); MIC (S. pyogenes): 13 µg/mL (≈ 41 µM) |
| CCCCC1CC(c2ccc(O)cc2)(c2ccc(O)cc2)C1 [Example 6, 1,1-Bis(4-hydroxyphenyl)-3-n-butyl-cyclobutane] | 4 (≈ 13.5 µM) | – | MIC (C. diphtheriae): 3 µg/mL (≈ 10.1 µM); MIC (E. faecalis): 3 µg/mL (≈ 10.1 µM); MIC (H. influenzae): 13 µg/mL (≈ 43.9 µM); MIC (M. catarrhalis): 3 µg/mL (≈ 10.1 µM); MIC (M. smegimatis): 3 µg/mL (≈ 10.1 µM); MIC (S. epidermidis): 3 µg/mL (≈ 10.1 µM); MIC (S. pneumoniae): 6 µg/mL (≈ 20.2 µM); MIC (S. pyogenes): 13 µg/mL (≈ 43.9 µM) |
| CCCCC1CC1(c1ccc(O)c(C)c1)c1ccc(O)c(C)c1 (stereo not drawn) [Example 10, 1,1-Bis(4-hydroxy-3-methylphenyl)-2-n-butylcyclopropane] | 3 (≈ 9.66 µM) | – | – |
| CC(C)(C)CC1CC(c2ccc(O)cc2)(c2ccc(O)cc2)C1 [Example 11, 1,1-Di(4-hydroxyphenyl)-3-(2,2-dimethylpropyl)cyclobutane] | 12.5 (≈ 40.3 µM) | 182 to 184 | – |
| CC(C)(C)C1CC(c2ccc(O)cc2)(c2ccc(O)cc2)C1 [Example 17, 1,1-Di-(4-hydroxyphenyl)-3-(1,1-dimethylethyl)cyclobutane] | 6.2 (≈ 20.9 µM) | – | – |
| CCCCC1CC1(c1ccc(O)cc1)c1ccc(O)cc1 (stereo not drawn) [Example 18, 1,1-Di(4-hydroxyphenyl)-2-n-butylcyclopropane] | 3.1 (≈ 11 µM) | – | – |
| CCCCCC1CC1(c1ccc(O)cc1)c1ccc(O)cc1 (stereo not drawn) [Example 19, 1,1-Di(4-hydroxyphenyl)-2-n-pentylcyclopropane] | 6.2 (≈ 20.9 µM) | – | – |
| CCCCC1CC1(c1ccc(O)c(Cl)c1)c1cc(Cl)c(O)c(Cl)c1 (stereo not drawn) [Example 21, 1-(3-Chloro-4-hydroxyphenyl)-1-(4-hydroxy-3,5-dichlorophenyl)-2-n-butylcyclopropane] | 3.1 (≈ 8.04 µM) | – | – |
| CC(C)(C)CC1CC(c2ccc(O)c(Cl)c2)(c2ccc(O)c(Cl)c2)C1 [Example 24, 1,1-Di-(3-chloro-4-hydroxyphenyl)-3-(2,2-dimethylpropyl)cyclobutane] | 1.6 (≈ 4.22 µM) | 131 to 134 | – |
| CCCCCC1CC(c2ccc(O)c(CC)c2)(c2ccc(O)c(CC)c2)C1 [Example 31, 1,1-Di(3-ethyl-4-hydroxyphenyl)-3-n-pentylcyclobutane] | 1.6 (≈ 4.37 µM) | 109 to 111 | – |
| CCCCCC1CC(c2cc(C)c(O)c(C)c2)(c2cc(C)c(O)c(C)c2)C1 [Example 32, 1,1-Di(3,5-dimethyl-4-hydroxyphenyl)-3-n-pentylcyclobutane] | 1.6 (≈ 4.37 µM) | 115 to 117 | – |
| C=CCc1cc(C2(c3ccc(O)c(CC=C)c3)CC(CCCC)C2)ccc1O [Example 33, 1,1-Di(3-allyl-4-hydroxyphenyl)-3-n-butylcyclobutane] | 1.6 (≈ 4.25 µM) | – | – |
| CCCCCC1c2ccc(O)cc2-c2cc(O)ccc21 [Example 34, 9-Pentyl-9H-fluorene-3,6-diol] | 3.1 (≈ 11.6 µM) | – | – |
| Trans-1,1-di-(4-hydroxy-3-methylphenyl)-3-(2,2-dimethylpropyl)-2-methylcyclobutane [Example 15] | – | – | Antibacterial Activity against S. aureus MIC (S. aureus; S. aureus): 0.4 µg/mL |

The remaining molecules from weak to strong by MIC (S. aureus), led by results:

| MIC (S. aureus) [µg/mL] | melting point [°C] | Molecule | other results |
| --- | --- | --- | --- |
| 1.6 (≈ 4.73 µM) | 175 to 176 | Cc1cc(C2(c3ccc(O)c(C)c3)CC(CC(C)(C)C)C2)ccc1O [Example 12, 1,1-Di(4-hydroxy-3-methylphenyl)-3-(2,2-dimethylpropyl)cyclobutane] | – |
| 1.6 (≈ 4.55 µM) | – | CCCCC1CC1(c1ccc(O)c(Cl)c1)c1ccc(O)c(Cl)c1 (stereo not drawn) [Example 20, 1,1-Di(3-chloro-4-hydroxyphenyl)-2-n-butylcyclopropane] | – |
| 1.6 (≈ 4.38 µM) | – | CCCCCC1CC1(c1ccc(O)c(Cl)c1)c1ccc(O)c(Cl)c1 (stereo not drawn) [Example 22, 1,1-Di(3-chloro-4-hydroxyphenyl)-2-pentylcyclopropane] | – |
| 1.6 (≈ 4 µM) | – | CCCCCC1CC1(c1ccc(O)c(Cl)c1)c1cc(Cl)c(O)c(Cl)c1 (stereo not drawn) [Example 23, 1-(3-Chloro-4-hydroxyphenyl)-1-(4-hydroxy-3,5-dichlorophenyl)-2-pentylcyclopropane] | – |
| 1 (≈ 3.02 µM) | – | CCCCC1CC(c2ccc(O)cc2)(c2ccc(O)c(Cl)c2)C1 (stereo not drawn) [Example 7, 1-(4-Hydroxyphenyl)-1-(4-hydroxy-3-chlorophenyl)-3-n-butyl-cyclobutane] | MIC (C. diphtheriae): 2 µg/mL (≈ 6.04 µM); MIC (E. faecalis): 2 µg/mL (≈ 6.04 µM); MIC (H. influenzae): 6 µg/mL (≈ 18.1 µM); MIC (M. catarrhalis): 1 µg/mL (≈ 3.02 µM); MIC (M. smegimatis): 1 µg/mL (≈ 3.02 µM); MIC (S. epidermidis): 1 µg/mL (≈ 3.02 µM); MIC (S. pneumoniae): 3 µg/mL (≈ 9.07 µM); MIC (S. pyogenes): 6 µg/mL (≈ 18.1 µM) |
| 0.8 (≈ 2.47 µM) | 79 to 81 | C[C@H]1[C@@H](CC(C)(C)C)CC1(c1ccc(O)cc1)c1ccc(O)cc1 (relative stereo) [Example 14, Cis-1,1-di(4-hydroxyphenyl)-3-(2,2-dimethylpropyl)-2-methylcyclobutane] | – |
| 0.8 (≈ 2.03 µM) | 126 to 128 | C[C@H]1[C@H](CC(C)(C)C)CC1(c1ccc(O)c(Cl)c1)c1ccc(O)c(Cl)c1 (relative stereo) [Example 26, Trans-1,1-Di(3-chloro-4-hydroxyphenyl)-3-(2,2-dimethylpropyl)-2-methylcyclobutane] | – |
| 0.8 (≈ 1.9 µM) | – | Cc1cc(C2(c3cc(C)c(O)c(Cl)c3)C[C@@H](CC(C)(C)C)[C@@H]2C)cc(Cl)c1O (relative stereo) [Example 27, Trans-1,1-di(5-chloro-4-hydroxy-3-methylphenyl)-3-(2,2-dimethylpropyl)-2-methylcyclobutane] | – |
| 0.8 (≈ 2.47 µM) | – | Cc1cc(C2(c3ccc(O)c(C)c3)CC(C(C)(C)C)C2)ccc1O [Example 16, 1,1-Di-(4-hydroxy-3-methylphenyl)-3-(1,1-dimethylethyl)cyclobutane] | – |
| 0.8 (≈ 2.19 µM) | 133 to 135 | CC(C)(C)C1CCC1(c1ccc(O)c(Cl)c1)c1ccc(O)c(Cl)c1 (stereo not drawn) [Example 25, 1,1-Di-(3-chloro-4-hydroxyphenyl)-2-(1,1-dimethylethyl)cyclobutane] | – |
| 0.8 (≈ 2.27 µM) | 135 to 138 | CCCCC1CC(c2ccc(O)c(CC)c2)(c2ccc(O)c(CC)c2)C1 [Example 29, 1,1-Di(3-ethyl-4-hydroxyphenyl)-3-n-butylcyclobutane] | – |
| 0.8 (≈ 2.27 µM) | 138 to 141 | CCCCC1CC(c2cc(C)c(O)c(C)c2)(c2cc(C)c(O)c(C)c2)C1 [Example 30, 1,1-Di(3,5-dimethyl-4-hydroxyphenyl)-3-n-butylcyclobutane] | – |
